Patent publication US20220402948A1, “EGFR INHIBITOR, COMPOSITION AND PREPARATION METHOD THEREFOR” (BETTA PHARMACEUTICALS CO., LTD., priority 2019, published 2022)

Experiments:
Type in all cases: biochemical
[1] = molecular target: EGFRΔ19del/T790M/C797S (Homo sapiens, UniProt P00533, T790M/C797S, form not given); assay: EGFR Δ19del/T790M/C797S kinase test (mobility variation analysis, Caliper EZ Reader); details: kinase enzymatic activity, Table 1
Experimental: (§1) Mobility variation analysis was performed to determine the affinity of the compound for EGFRΔ19del/T790M/C797S, EGFR WT and IGF1R. The enzymatic reaction scheme is as follows:
(§2) 1. Prepare 1*kinase buffer as follows.
(§3) 3. […] Prepare 2.5-fold final concentration of kinase solution with 1×Kinase buffer.
(§4) 4. Add 10 μL of 2.5-fold final concentration of kinase solution to the compound well and the positive control well; add 10 μL of 1×Kinase buffer to the negative control well.
(§5) 5. Centrifuge at 1000 rpm for 30 s, shake the reaction plate for well mixing, and then incubate at room temperature for 10 minutes.
(§6) 6. Prepare a mixture of ATP and Kinase substrate at 5/3-fold final concentration with 1×Kinase buffer.
(§7) 8. Centrifuge the 384-well plate at 1000 rpm for 30 s, shake it well and then incubate it at room temperature for corresponding time.
(§8) 9. Add 30 μL of stop detection solution to stop the kinase reaction, centrifuge at 1000 rpm for 30 s, and shake it well.
(§9) 10. Read conversion rate with Caliper EZ Reader.
(§10) % Inhibition=((Conversion%_max−Conversion%_sample)/(Conversion%_max−Conversion%_min))*100
(§11) Wherein: Conversion%_sample is the sample conversion rate reading; Conversion%_min: Mean value of negative control wells, representing the conversion rate reading of wells without enzymatic activity; Conversion%_max: Mean value of positive control wells, representing the conversion rate reading of wells without compound inhibition.
(§12) The dose-effect curve was fitted with concentration log value as X-axis and percentage inhibition rate as Y-axis. GraphPad Prism 5 analysis software was used for fitting Log (inhibitor) vs. response—Variable slope with the dose-effect curve to obtain IC50 value of enzymatic activity for each compound.
(§13) The calculation formula is as Y-Bottom+(Top-Bottom)/(1+10^((Log IC50−X)*HillSlope)).

[2] = molecular target: EGFR WT (Homo sapiens, UniProt P00533); assay: EGFR WT kinase test (mobility variation analysis, Caliper EZ Reader); details: kinase enzymatic activity, Table 1
Sequence of EGFR WT (P00533 25-1210): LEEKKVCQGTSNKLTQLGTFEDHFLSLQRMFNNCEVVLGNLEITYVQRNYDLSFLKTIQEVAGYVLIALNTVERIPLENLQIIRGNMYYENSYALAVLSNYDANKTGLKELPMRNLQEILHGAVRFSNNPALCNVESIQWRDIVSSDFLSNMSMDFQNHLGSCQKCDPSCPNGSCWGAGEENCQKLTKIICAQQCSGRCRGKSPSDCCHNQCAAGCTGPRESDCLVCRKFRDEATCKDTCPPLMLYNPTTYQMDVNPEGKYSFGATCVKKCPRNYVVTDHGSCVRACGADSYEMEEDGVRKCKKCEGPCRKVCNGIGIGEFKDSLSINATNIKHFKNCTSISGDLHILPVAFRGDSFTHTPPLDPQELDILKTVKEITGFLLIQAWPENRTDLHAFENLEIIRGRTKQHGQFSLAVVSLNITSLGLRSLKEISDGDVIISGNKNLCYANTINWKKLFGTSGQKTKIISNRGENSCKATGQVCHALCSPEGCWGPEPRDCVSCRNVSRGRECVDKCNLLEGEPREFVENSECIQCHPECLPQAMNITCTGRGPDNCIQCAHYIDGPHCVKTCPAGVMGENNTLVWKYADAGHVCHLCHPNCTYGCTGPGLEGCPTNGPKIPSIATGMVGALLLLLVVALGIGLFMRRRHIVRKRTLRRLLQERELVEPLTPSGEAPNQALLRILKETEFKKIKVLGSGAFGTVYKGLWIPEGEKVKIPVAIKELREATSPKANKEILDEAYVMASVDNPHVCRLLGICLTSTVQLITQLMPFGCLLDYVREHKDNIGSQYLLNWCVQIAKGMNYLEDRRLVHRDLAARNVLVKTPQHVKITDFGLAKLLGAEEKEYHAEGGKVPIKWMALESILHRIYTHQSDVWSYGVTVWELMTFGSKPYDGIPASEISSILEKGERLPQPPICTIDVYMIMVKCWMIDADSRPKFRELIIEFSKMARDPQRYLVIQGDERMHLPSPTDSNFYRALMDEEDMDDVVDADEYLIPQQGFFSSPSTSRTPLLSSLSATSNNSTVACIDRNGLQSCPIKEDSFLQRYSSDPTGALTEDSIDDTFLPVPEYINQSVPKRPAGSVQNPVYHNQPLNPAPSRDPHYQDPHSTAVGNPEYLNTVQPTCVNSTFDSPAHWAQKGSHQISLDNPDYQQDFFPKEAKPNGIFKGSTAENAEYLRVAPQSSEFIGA
Experimental: as §1, §2, §3, §4, §5, §6, §7, §8, §9, §10, §11, §12, §13

[3] = molecular target: IGF1R (Homo sapiens, UniProt P08069); assay: IGF1R kinase test (mobility variation analysis, Caliper EZ Reader); details: kinase enzymatic activity, Table 1; read-out: EGFR IGF1R IC50
Sequence of IGF1R (P08069 31-1367, species assumed): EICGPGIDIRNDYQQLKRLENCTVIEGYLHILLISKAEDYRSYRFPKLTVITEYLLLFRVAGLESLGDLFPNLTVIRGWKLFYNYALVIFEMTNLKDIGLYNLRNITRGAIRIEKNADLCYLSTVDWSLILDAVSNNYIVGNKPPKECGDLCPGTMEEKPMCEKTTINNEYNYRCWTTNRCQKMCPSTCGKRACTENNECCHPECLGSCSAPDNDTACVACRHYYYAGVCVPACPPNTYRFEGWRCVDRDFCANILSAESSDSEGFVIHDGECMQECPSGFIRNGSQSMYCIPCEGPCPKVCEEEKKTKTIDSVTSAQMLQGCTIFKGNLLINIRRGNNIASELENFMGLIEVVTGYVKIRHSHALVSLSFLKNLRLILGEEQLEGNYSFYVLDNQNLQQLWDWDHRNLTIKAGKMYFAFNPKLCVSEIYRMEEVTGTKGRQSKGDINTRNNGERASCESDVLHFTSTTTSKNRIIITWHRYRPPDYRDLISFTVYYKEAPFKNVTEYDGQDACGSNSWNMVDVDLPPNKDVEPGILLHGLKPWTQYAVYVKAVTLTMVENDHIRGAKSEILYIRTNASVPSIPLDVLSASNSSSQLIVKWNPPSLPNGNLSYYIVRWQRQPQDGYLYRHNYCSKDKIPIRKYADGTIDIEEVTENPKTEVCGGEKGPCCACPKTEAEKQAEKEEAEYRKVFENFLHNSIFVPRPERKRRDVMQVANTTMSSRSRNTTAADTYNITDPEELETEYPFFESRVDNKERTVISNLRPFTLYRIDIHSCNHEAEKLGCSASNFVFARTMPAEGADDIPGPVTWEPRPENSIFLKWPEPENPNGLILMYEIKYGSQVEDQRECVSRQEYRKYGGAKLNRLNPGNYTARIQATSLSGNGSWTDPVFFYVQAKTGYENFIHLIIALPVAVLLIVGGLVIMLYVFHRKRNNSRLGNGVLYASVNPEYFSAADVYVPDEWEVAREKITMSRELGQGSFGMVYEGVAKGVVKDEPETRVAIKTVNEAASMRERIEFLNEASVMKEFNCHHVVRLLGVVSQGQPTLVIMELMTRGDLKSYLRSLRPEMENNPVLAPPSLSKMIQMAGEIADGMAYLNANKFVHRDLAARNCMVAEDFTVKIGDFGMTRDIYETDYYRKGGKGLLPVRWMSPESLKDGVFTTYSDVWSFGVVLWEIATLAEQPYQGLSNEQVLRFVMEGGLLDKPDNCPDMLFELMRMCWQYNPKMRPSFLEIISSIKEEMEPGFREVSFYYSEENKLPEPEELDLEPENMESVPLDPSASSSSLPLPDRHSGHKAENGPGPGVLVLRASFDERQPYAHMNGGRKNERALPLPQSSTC
Experimental: as §1, §2
2. Preparation of compound concentration gradient: The test compound was tested with an initial concentration of 3000 nM (300 nM for some triple mutations and 100 nM for others), diluted in a 384 source plate (96-well plate for comparative compound 1 and compounds 1-38) to a 100% DMSO solution with 100-fold final concentration, and the compound is 3-fold diluted with Precision to 10 concentrations. A dispenser Echo 550 was used to transfer 250 nL 100-fold final concentration of the compound to the target plate OptiPlate-384F.
3. Prepare 2.5-fold final concentration (5-fold for comparative compound 1 and compounds 1-38) of kinase solution with 1×Kinase buffer. Following steps should also be carried out for comparative compound 1 and compounds 1-38: Add each prepared intermediate dilution compounds to the compound wells of 384-well plate respectively, and test the repeated wells of each concentration; add 5% DMSO of 5 plates into the negative control well and the positive control well respectively. Prepare 2.5-fold final concentration of kinase solution with 1×Kinase buffer.
as §4, §5, §6
7. Add 15 μL mixture of 5/3-fold (2.5-fold for comparative compound 1 and compounds 1-38) final concentration of ATP and substrate to start reaction.
as §7, §8, §9, §10, §11, §12, §13

Sequence of EGFRΔ19del/T790M/C797S (P00533 with tags, fused parts or gaps DEL746-750/T790M/C797S, form open): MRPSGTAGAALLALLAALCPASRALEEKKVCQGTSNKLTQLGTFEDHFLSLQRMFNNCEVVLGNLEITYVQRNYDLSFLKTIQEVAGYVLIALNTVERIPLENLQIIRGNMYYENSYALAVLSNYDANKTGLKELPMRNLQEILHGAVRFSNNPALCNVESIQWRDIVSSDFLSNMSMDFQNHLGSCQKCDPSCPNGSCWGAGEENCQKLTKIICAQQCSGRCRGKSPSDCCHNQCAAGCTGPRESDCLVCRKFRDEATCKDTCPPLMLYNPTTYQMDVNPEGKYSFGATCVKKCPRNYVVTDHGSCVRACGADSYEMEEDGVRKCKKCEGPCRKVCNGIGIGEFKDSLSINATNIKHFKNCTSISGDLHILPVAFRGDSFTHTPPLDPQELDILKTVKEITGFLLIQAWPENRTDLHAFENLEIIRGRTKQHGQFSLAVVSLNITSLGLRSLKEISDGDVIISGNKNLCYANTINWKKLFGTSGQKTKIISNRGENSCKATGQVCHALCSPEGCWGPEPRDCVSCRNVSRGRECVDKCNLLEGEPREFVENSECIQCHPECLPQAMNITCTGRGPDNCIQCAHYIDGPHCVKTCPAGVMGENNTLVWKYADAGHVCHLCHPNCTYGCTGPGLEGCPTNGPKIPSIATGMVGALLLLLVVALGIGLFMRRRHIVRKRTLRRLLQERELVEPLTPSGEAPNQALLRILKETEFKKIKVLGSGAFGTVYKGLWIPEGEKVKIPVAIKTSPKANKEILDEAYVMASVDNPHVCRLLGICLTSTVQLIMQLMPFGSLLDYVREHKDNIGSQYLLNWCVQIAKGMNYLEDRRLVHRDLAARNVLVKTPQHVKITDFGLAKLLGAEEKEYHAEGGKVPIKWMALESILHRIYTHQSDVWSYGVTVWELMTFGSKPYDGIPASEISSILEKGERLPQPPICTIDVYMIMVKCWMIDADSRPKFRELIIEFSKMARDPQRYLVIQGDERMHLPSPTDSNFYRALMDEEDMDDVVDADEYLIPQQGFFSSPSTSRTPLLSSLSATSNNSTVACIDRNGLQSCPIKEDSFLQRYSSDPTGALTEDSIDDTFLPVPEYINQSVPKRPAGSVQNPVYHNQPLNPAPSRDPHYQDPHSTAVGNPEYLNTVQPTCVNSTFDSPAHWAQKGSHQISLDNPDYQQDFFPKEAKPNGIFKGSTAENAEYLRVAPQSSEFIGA

Row | IC50 [1] [nM] | IC50 [2] [nM] | IC50 [3] [nM] | SMILES
1 | 1.24 | 86.2 | 1170 | CCc1cc(Nc2ncc(Br)c(Nc3ccc(-c4cn(C)c5cccnc45)cc3P(C)(C)=O)n2)c(OC)cc1N1CCC(N2CCN(C)CC2)CC1 [Compound 42]
2 | 2.5 | 82.5 | 748 | CCc1cc(Nc2ncc(Br)c(Nc3ccc(-c4cc5cc(C#N)ccc5[nH]4)cc3P(C)(C)=O)n2)c(OC)cc1N1CCC(N2CCN(C)CC2)CC1 [Compound 43]
3 | 0.3 | – | 112 | CCc1cc(Nc2ncc(Cl)c(Nc3ccc(-c4cn[nH]c4)cc3P(C)(C)=O)n2)c(OC)cc1N1CCC(N2CCN(C)CC2)CC1 [Compound 48, (2-((5-Chloro-2-((5-ethyl-2-methoxy-4-(4-(4-methylpiperazin-1-yl)piperidin-1-yl)phenyl)amino)pyrimidin-4-yl)amino)-5-(1H-pyrazol-4-yl)phenyl)dimethylphosphine oxide]
4 | 4.1 | 416 | 2780 | CCc1cc(Nc2ncc(Br)c(Nc3ccc(-n4cccn4)cc3P(C)(C)=O)n2)c(OC)cc1N1CCC(N2CCN(C)CC2)CC1 [Compound 49, (2-((5-Bromo-2-((5-ethyl-2-methoxy-4-(4-(4-methylpiperazin-1-yl)piperidin-1-yl)phenyl)amino)pyrimidin-4-yl)amino)-5-(1H-pyrazol-1-yl)phenyl)dimethylphosphine oxide]
5 | 0.6 | 42.2 | 624 | CCc1cc(Nc2ncc(Br)c(Nc3ccc(-c4c(C)cnn4C)cc3P(C)(C)=O)n2)c(OC)cc1N1CCC(N2CCN(C)CC2)CC1 [Compound 54]
6 | 2.4 | 72.5 | 886 | CCc1cc(Nc2ncc(Cl)c(Nc3ccc(-c4ccnc5c4ccn5C)cc3P(C)(C)=O)n2)c(OC)cc1N1CCC(N2CCN(C)CC2)CC1 [Compound 56, (2-((5-Chloro-2-((5-ethyl-2-methoxy-4-(4-(4-methylpiperazin-1-yl)piperidin-1-yl)phenyl)amino)pyrimidin-4-yl)amino)-5-(1-methyl-1H-pyrrolo[2,3-b]pyridin-4-yl)phenyl)dimethylphosphine oxide]
7 | 3.7 | 65 | 274 | CCOc1noc(C)c1-c1ccc(Nc2nc(Nc3cc(CC)c(N4CCC(N5CCN(C)CC5)CC4)cc3OC)ncc2Cl)c(P(C)(C)=O)c1 [Compound 58, (2-((5-Chloro-2-((5-ethyl-2-methoxy-4-(4-(4-methylpiperazin-1-yl)piperidin-1-yl)phenyl)amino)pyrimidin-4-yl)amino)-5-(3-ethoxy-5-methylisoxazol-4-yl)phenyl)dimethylphosphine oxide]
8 | 0.8 | 216 | 992 | CCc1cc(Nc2ncc(Br)c(Nc3ccc(-c4ncnn4C)cc3P(C)(C)=O)n2)c(OC)cc1N1CCC(N2CCN(C)CC2)CC1 [Compound 62, (2-((5-Bromo-2-((5-ethyl-2-methoxy-4-(4-(4-methylpiperazin-1-yl)piperidin-1-yl)phenyl)amino]pyrimidin-4-yl)amino)-5-(1-methyl-1H-1,2,4-triazol-5-yl)phenyl)dimethylphosphine oxide]
9 | 0.9 | 84.7 | 663 | CCc1cc(Nc2ncc(Br)c(Nc3ccc(-c4cn(C)cn4)cc3P(C)(C)=O)n2)c(OC)cc1N1CCC(N2CCN(C)CC2)CC1 [Compound 68, (2-((5-Bromo-2-((5-ethyl-2-methoxy-4-(4-(4-methylpiperazin-1-yl)piperidin-1-yl)phenyl)amino)pyrimidin-4-yl)amino)-5-(1-methyl-1H-imidazol-4-yl)phenyl)dimethylphosphine oxide]
10 | 1.3 | 55.1 | 714 | CCc1cc(Nc2ncc(Br)c(Nc3ccc(-c4cccc(N(C)C)n4)cc3P(C)(C)=O)n2)c(OC)cc1N1CCC(N2CCN(C)CC2)CC1 [Compound 71]
11 | 1.6 | 44 | 886 | CCc1cc(Nc2ncc(Cl)c(Nc3ccc(-c4cccc5ocnc45)cc3P(C)(C)=O)n2)c(OC)cc1N1CCC(N2CCN(C)CC2)CC1 [Compound K-052, (5-(Benzo[d]oxazol-4-yl)-2-((5-chloro-2-((5-ethyl-2-methoxy-4-(4-(4-methylpiperazin-1-yl)piperidin-1-yl)phenyl)amino)pyrimidin-4-yl)amino)phenyl)dimethylphosphine oxide]
12 | 0.8 | 38.8 | 279 | CCn1cc(-c2cc(Nc3ncc(Br)c(Nc4ccc(-c5cccc6cc[nH]c56)cc4P(C)(C)=O)n3)c(OC)cc2N2CCC(N3CCN(C)CC3)CC2)cn1 [Compound K-091, (2-((5-Bromo-2-((5-(1-ethyl-1H-pyrazol-4-yl)-2-methoxy-4-(4-(4-methylpiperazin-1-yl)piperidin-1-yl)phenyl)amino)pyrimidin-4-yl)amino)-5-(1H-indol-7-yl)phenyl)dimethylphosphine oxide]

More lines, now with the values behind:

Row | SMILES | IC50 [1] [nM] | IC50 [2] [nM] | IC50 [3] [nM]
13 | CCc1cc(Nc2ncc(Br)c(Nc3ccc(-c4ccn[nH]4)cc3P(C)(C)=O)n2)c(OC)cc1N1CCC(N2CCN(C)CC2)CC1 [Compound 39, (2-((5-Bromo-2-((5-ethyl-2-methoxy-4-(4-(4-methylpiperazin-1-yl)piperidin-1-yl)phenyl)amino)pyrimidin-4-yl)amino)-5-(1H-pyrazol-5-yl)phenyl)dimethylphosphine oxide] | 0.4 | 18.3 | 138
14 | CCc1cc(Nc2ncc(Cl)c(Nc3ccc(-c4cnn5c4CC(C)(C)C5)cc3P(C)(C)=O)n2)c(OC)cc1N1CCC(N2CCN(C)CC2)CC1 [Compound 41, (2-((5-Chloro-2-((5-ethyl-2-methoxy-4-(4-(4-methylpiperazin-1-yl)piperidin-1-yl)phenyl)amino)pyrimidin-4-yl)amino)-5-(5,5-dimethyl-5,6-dihydro-tetrahydro-pyrrolo[1,2-b]pyrazol-3-)phenyl)dimethylphosphine oxide] | 1.5 | 58.9 | 748
15 | CCc1cc(Nc2ncc(Br)c(Nc3ccc(-c4cccc5cc[nH]c45)cc3P(C)(C)=O)n2)c(OC)cc1N1CCC(N2CCN(C)CC2)CC1 [Compound 52] | 1.9 | 203 | 1910
16 | CCc1cc(Nc2ncc(Cl)c(Nc3ccc(-c4cnccc4OC)cc3P(C)(C)=O)n2)c(OC)cc1N1CCC(N2CCN(C)CC2)CC1 [Compound 53, (2-((5-Chloro-2-((5-ethyl-2-methoxy-4-(4-(4-methylpiperazin-1-yl)piperidin-1-yl)phenyl)amino)pyrimidin-4-yl)amino)-5-(4-methoxypyridin-3-yl)phenyl)dimethylphosphine oxide] | 0.6 | 64 | 1100
17 | CCc1cc(Nc2ncc(Br)c(Nc3ccc(-c4ncsc4C)cc3P(C)(C)=O)n2)c(OC)cc1N1CCC(N2CCN(C)CC2)CC1 [Compound 60] | 0.6 | 47 | 418
18 | CCc1cc(Nc2ncc(Br)c(Nc3ccc(-c4nccn4C4CC4)cc3P(C)(C)=O)n2)c(OC)cc1N1CCC(N2CCN(C)CC2)CC1 [Compound 69] | 4 | 316 | 1940
19 | CCc1cc(Nc2ncc(Cl)c(Nc3ccc(-c4ccc[nH]c4=O)cc3P(C)(C)=O)n2)c(OC)cc1N1CCC(N2CCN(C)CC2)CC1 [Compound K-092, 3-(4-((5-Chloro-2-((5-ethyl-2-methoxy-4-(4-(4-methylpiperazin-1-yl)piperidin-1-yl)phenyl)amino)pyrimidin-4-yl)amino)-3-(dimethylphosphoryl)phenyl)pyridin-2(1H)-one] | 0.8 | 83.6 | 427
20 | CCn1cc(-c2cc(Nc3ncc(Br)c(Nc4ccc(-c5nn(C)c6ncccc56)cc4P(C)(C)=O)n3)c(OC)cc2N2CCC(N3CCN(C)CC3)CC2)cn1 [Compound K-102, (2-((5-Bromo-2-((5-(1-ethyl-1H-pyrazol-4-yl)-2-methoxy-4-(4-(4-methylpiperazin-1-yl)piperidin-1-yl)phenyl)amino)pyrimidin-4-yl)amino)-5-(1-methyl-1H-pyrazolo[3,4-b]pyridin-3-yl)phenyl)dimethylphosphine oxide] | 0.3 | – | –
